Test system: tubulin
Assay: FCS measurement of incorporation of rhodamine-labeled tubulin dimers into preformed microtubules (exchange kinetics in the assembly equilibrium)
Settings: 10^−5M tubulin assembly mixture, 10^−9M rhodamine-labeled tubulin, 37° C.

Structure (SMILES)	concentration up to which the action on the described kinetics can be tracked
COC(=O)Nc1nc2ccc(C(=O)c3cccs3)cc2[nH]1 [nocodazole]	10^−11 M
CC(=O)O[C@H]1C(=O)[C@@]2(C)[C@H]([C@H](OC(=O)c3ccccc3)[C@]3(O)C[C@H](OC(=O)[C@H](O)[C@@H](NC(=O)c4ccccc4)c4ccccc4)C(C)=C1C3(C)C)[C@]1(OC(C)=O)CO[C@@H]1C[C@@H]2O [taxol, paclitaxel]	10^−11 M

Reference: patent publication US20040023228A1, “System and method for analysing active ingredients designed to influence intra-cellular processes” (priority 2000, published 2004)
